Results taken from patent US5804555A, “Antioxidant” (Morinaga Milk Industry Co., Ltd., priority 1992, dated 1998).

Tests used:
[1] = Test 2: inducing period of linoleic acid oxidation (days until absorbance of 0.2 is exceeded); format: biochemical; details: single addition, final concentration 0.1% in linoleic acid
Description: The following 11 kinds of sample were prepared.
Sample 2: A sample prepared by adding a hydrolysate of lactoferrin (prepared by the same method as in the Example 2) to linoleic acid to achieve a final concentration of 0.1%;
Sample 3: A sample prepared by adding peptides (prepared by the same method as in the Example 3) to linoleic acid to achieve a final concentration of 0.1%;
Sample 4: A sample prepared by adding vitamin E (dl-α tocopherol the same one as in the Test 1) to linoleic acid to achieve a final concentration of 0.1%;
Sample 5: A sample prepared by adding superoxide dismutase (manufactured by Sigma Company) to linoleic acid to achieve a final concentration of 0.1%;
Sample 6: A sample prepared by adding β-carotene (manufactured by Nakaraitesk Company) to linoleic acid to achieve a final concentration of 0.1%;
Sample 7: A sample prepared by adding vitamin C (manufactured by Nakaraitesk Company) to linoleic acid to achieve a final concentration of 0.1%; […]
Absorbance was measured by the same method as in the Test 1, and with the number of days until an absorbance of 0.2 is exceeded as the inducing period, antioxidant effect was tested.

[2] = Test 1: antioxidant effect on linoleic acid, peroxides by ferric thiocyanate method; format: biochemical; details: 0.2% added to linoleic acid, 60° C.
Description: A sample was prepared by adding dl-α tocopherol (manufactured by Wako Jun-yaku Kogyo Company), bovine lactoferrin (manufactured by Sigma Company), hydrolysate of lactoferrin (prepared by the same method as in the Example 2), or peptide (prepared by the same method as in the Example 3) to a final concentration of 0.2% (weight percentage; same applies hereafter except for the degree of decomposition) to commercially available linoleic acid (manufactured by Wako Jun-Yaku Kogyo Company) containing no additive. Hereafter, the thus prepared samples are individually referred to as […].
Antioxidant effect of the individual samples was tested by the method of Mitsuda et al.(Eiyo to Shokuryo, Vol. 19, p. 210, 1966) described below.
The above-mentioned samples were added to a mixed solution containing 10 ml of ethanol, 10 ml of 0.1M phosphate buffer solution (pH: 7.0), and 5 ml of deionized water so as to achieve a final concentration of linoleic acid of […](mol/l). This solution was placed in a vial bottle having a capacity of 50 ml, and the closely plugged bottle was held in an incubator at 60° C. The total volume was always adjusted to 25 ml by reducing the above-mentioned ionized water, depending upon the quantity of added sample. At prescribed time intervals, 0.1 ml was sampled from this vial bottle to measure the quantity of peroxides by the following ferric thiocyanate method.
To the sample solution in an amount of 0.1 ml, 4.7 ml of 75% ethanol, 0.1 ml of 30% ammonium rhodanide, and 0.1 ml of 3.5% hydrochloric acid solution of 2×10^-2 M ferrous chloride were added, and absorbance at 500 nm was measured upon the lapse of just three minutes.

Cc1c(C)c2c(c(C)c1O)CCC(C)(CCCC(C)CCCC(C)CCCC(C)C)O2 (racemic) [Sample 2, dl-α tocopherol]
Inducing period [1]: 8 days
Degree of peroxidation (absorbance at 500 nm) ([2]; period of preservation 0 days): 0
Degree of peroxidation (absorbance at 500 nm) ([2]; period of preservation 3 days): 0.19
Degree of peroxidation (absorbance at 500 nm) ([2]; period of preservation 6 days): 0.16
Degree of peroxidation (absorbance at 500 nm) ([2]; period of preservation 10 days): 0.16
Degree of peroxidation (absorbance at 500 nm) ([2]; period of preservation 13 days): 0.21

Superoxide dismutase
Inducing period [1]: 10 days

CC1=C(/C=C/C(C)=C/C=C/C(C)=C/C=C/C=C(C)/C=C/C=C(C)/C=C/C2=C(C)CCCC2(C)C)C(C)(C)CCC1 [β-carotene]
Inducing period [1]: 14 days

O=C1O[C@H]([C@@H](O)CO)C(O)=C1O [Vitamin C, ascorbic acid]
Inducing period [1]: 8 days
